Patent US8440628B2, “Medical compositions containing ghrelin” (Daiichi Sankyo Company, Limited, priority 2002, dated 2013)
Where two headings read alike, the source gives them in different places.

How the values were obtained:
[1] = Stability of human ghrelin in 0.1M HCl and Mcllvain buffer solutions of various pH at 25°C (Example 2, HPLC peak area ratio); format: physicochemical; conditions: human ghrelin 0.5 mg/mL in Mcllvain buffer
Procedure: Human ghrelin was dissolved in the following aqueous solutions in the concentration of about 0.15 μmol/mL (0.5 mg/mL).
0.1M HCl aqueous solution (pH: 1.1)
The pH was adjusted with 0.1M citric aqueous acid and 0.2M dibasic sodium phosphate aqueous solution.
Each solution were stored at 25±2° C. for 8, 24, 48 and 72 hours respectively, and the obtained solutions were detected by HPLC analysis in comparison to the solutions before storage. […] No significant changes of pH in solution before storage and after storage were observed.

[2] = Stability of human ghrelin in Britton-Robinson buffer solutions of various pH at 40°C (Example 3); format: physicochemical; conditions: pH of 3.1, 4.0, 5.0 and 6.0, 40±1°C, storage time not stated, target value 85%
Procedure: Human ghrelin, which is one of the ghrelins, was dissolved in the Britton-Robinson buffer solutions which is adjusted by combining 0.04M phosphoric acid-acetic acid-boric acid aqueous solution and 0.2M sodium hydrate aqueous solution in appropriate ratio, having pH of 2.1, 3.1, 4.0, 5.0, 6.0, 7.0 and 7.9 to obtain an aqueous solution containing human ghrelin in the concentration of about 0.15 μmol/mL (0.5 mg/mL). The obtained solution was filled in brownish glass ampoules and the ampoules were sealed with fire. For the calculation of kinetic constant, the certain degrees of degradation products have to be occurred in the aqueous solution of the ghrelins, and therefore, the ampoules were stored at 40±1° C., which was severe conditions for storage. The concentration (residual ratio) of human ghrelin was conducted by HPLC with time. At the same time, the pH of the solution was measured and it was confirmed that there was no significant changes of pH in solution.
The kinetic constants in each pH solution were calculated from the sequential change of the residual ratio, and the results were shown in FIG. 2.

[3] = format: physicochemical
Procedure: Human ghrelin, which is one of the ghrelins, was dissolved in the 0.05M glycine hydrochloride buffer solutions (pH 3.5) to obtain an aqueous solution containing human ghrelin with following five concentrations, which are applicable for medical usage.
0.03 nmol/mL (0.1 μg/mL); 0.3 nmol/mL (1.0 μg/mL);
3.0 nmol/mL (10.0 μg/mL); 0.3 μmol/mL (1.0 mg/mL);
Each solutions were stored at 25±2° C. for 24 hours, and after storage, the HPLC analyses of each solutions were conducted to calculate the residual ratios from the concentration of human ghrelin. The changes of pH value were also examined to confirm no significant changes of pH in solutions occurred.
The residual ratio of the solution before storage was referred to as 100%, and the residual ratio of each solution after storage and the changes of pH value of each solution were summarized in the following Table 4.

[4] = Stability of human ghrelin in pH-adjusted purified water at 25°C (Example 7); format: physicochemical; conditions: for Peak area ratio to total peak area: 25±2°C
Procedure: Human ghrelin was dissolved in the purified water with about 0.03 μmol/mL (0.1 mg/mL). […] This solution was divided into quarter, and one portion was kept alone and the pH values of the remaining three portions were adjusted to pH 1.8 (with 17 mM of hydrochloric acid), pH 3.9 (with 0.20 mM of hydrochloric acid) and pH 7.8 (with 0.24 mM of sodium hydroxide) respectively, by adding along with hydrochloric acid or sodium hydroxide aqueous solution.

[5] = Lyophilized powder for in situ preparation: solubility, content and pH after redissolving (Example 11); conditions: solution just after preparation, before lyophilization
Procedure: Human ghrelin was dissolved in 5% mannitol-0.05M glycine hydrochloride buffer solution (pH 3.5) with about 0.3 nmol/mL (1.0 μg/mL) concentration, and the human ghrelin concentration of this solution just after preparation was measured by HPLC method, and pH value of this solution was also measured. […] Then, this solution was lyophilized at −25° C. for 24 hours in vacuo, and the obtained powder was further dried at 20° C. for 24 hours in vacuo.

[6] = h. ghrelin 0.03 nmol/mL in 0.05M glycine hydrochloride buffer (pH 3.5), after storage for 25° C./24 hours
[7] = h. ghrelin 0.03 nmol/mL in 0.05M glycine hydrochloride buffer (pH 3.5), just after preparation
[8] = h. ghrelin 0.3 nmol/mL in 0.05M glycine hydrochloride buffer (pH 3.5), after storage for 25° C./24 hours
[9] = h. ghrelin 0.3 nmol/mL in 0.05M glycine hydrochloride buffer (pH 3.5), just after preparation
[10] = h. ghrelin 3.0 nmol/mL in 0.05M glycine hydrochloride buffer (pH 3.5), after storage for 25° C./24 hours
[11] = h. ghrelin 3.0 nmol/mL in 0.05M glycine hydrochloride buffer (pH 3.5), just after preparation
[12] = h. ghrelin 0.3 μmol/mL in 0.05M glycine hydrochloride buffer (pH 3.5), after storage for 25° C./24 hours
[13] = h. ghrelin 0.3 μmol/mL in 0.05M glycine hydrochloride buffer (pH 3.5), just after preparation
[14] = h. ghrelin 3 μmol/mL in 0.05M glycine hydrochloride buffer (pH 3.5), after storage for 25° C./24 hours
[15] = h. ghrelin 3 μmol/mL in 0.05M glycine hydrochloride buffer (pH 3.5), just after preparation

SMILES: CCCCCCCC(=O)OC[C@H](NC(=O)[C@H](CO)NC(=O)CN)C(=O)N[C@@H](Cc1ccccc1)C(=O)N[C@@H](CC(C)C)C(=O)N[C@@H](CO)C(=O)N1CCC[C@H]1C(=O)N[C@@H](CCC(=O)O)C(=O)N[C@@H](Cc1c[nH]cn1)C(=O)N[C@@H](CCC(N)=O)C(=O)N[C@@H](CCCNC(=N)N)C(=O)N[C@H](C(=O)N[C@@H](CCC(N)=O)C(=O)N[C@@H](CCC(N)=O)C(=O)N[C@@H](CCCNC(=N)N)C(=O)N[C@@H](CCCCN)C(=O)N[C@@H](CCC(=O)O)C(=O)N[C@@H](CO)C(=O)N[C@@H](CCCCN)C(=O)N[C@@H](CCCCN)C(=O)N1CCC[C@H]1C(=O)N1CCC[C@H]1C(=O)N[C@@H](C)C(=O)N[C@@H](CCCCN)C(=O)N[C@@H](CC(C)C)C(=O)N[C@@H](CCC(N)=O)C(=O)N1CCC[C@H]1C(=O)N[C@@H](CCCNC(=N)N)C(=O)O)C(C)C [Human ghrelin]
- Peak area ratio to total peak area ([1]; pH 6, 25±2°C, before storage): 99.07%
- pH observed ([1]; pH 6, 25±2°C, before storage): 6.0
- Peak area ratio to total peak area ([1]; pH 7, 25±2°C, 8 hr. after): 98.15%
- pH observed ([1]; pH 7, 25±2°C, 8 hr. after): 7.0
- Peak area ratio to total peak area ([1]; pH 7, 25±2°C, 24 hr. after): 96.18%
- pH observed ([1]; pH 7, 25±2°C, 24 hr. after): 7.0
- Peak area ratio to total peak area ([1]; pH 7, 25±2°C, 24 hr. after, listed as human ghrelin): less than 98%
- Peak area ratio to total peak area ([1]; pH 7, 25±2°C, 48 hr. after): 93.44%
- pH observed ([1]; pH 7, 25±2°C, 48 hr. after): 7.0
- Peak area ratio to total peak area ([1]; pH 7, 25±2°C, 72 hr. after): 90.75%
- pH observed ([1]; pH 7, 25±2°C, 72 hr. after): 7.0
- Peak area ratio to total peak area ([1]; pH 7, 25±2°C, before storage): 98.97%
- pH observed ([1]; pH 7, 25±2°C, before storage): 7.0
- Peak area ratio to total peak area ([1]; pH 8, 25±2°C, 8 hr. after): 94.73%
- pH observed ([1]; pH 8, 25±2°C, 8 hr. after): 7.9
- Peak area ratio to total peak area ([1]; pH 8, 25±2°C, 24 hr. after): 87.32%
- pH observed ([1]; pH 8, 25±2°C, 24 hr. after): 7.9
- Peak area ratio to total peak area ([1]; pH 8, 25±2°C, 48 hr. after): 76.95%
- pH observed ([1]; pH 8, 25±2°C, 48 hr. after): 7.9
- Peak area ratio to total peak area ([1]; pH 8, 25±2°C, 72 hr. after): 68.30%
- pH observed ([1]; pH 8, 25±2°C, 72 hr. after): 7.9
- Peak area ratio to total peak area ([1]; pH 8, 25±2°C, before storage): 98.61%
- pH observed ([1]; pH 8, 25±2°C, before storage): 8.0
- Residual ratio [2]: more than 87%
- Residual ratio [3, 6]: 62%
- pH [3, 6]: 3.5
- Residual ratio [3, 7]: 100%
- pH [3, 7]: 3.4
- Residual ratio [3, 8]: 98%
- pH [3, 8]: 3.5
- Residual ratio [3, 9]: 100%
- pH [3, 9]: 3.5
- Residual ratio [3, 10]: 98%
- pH [3, 10]: 3.6
- Residual ratio [3, 11]: 100%
- pH [3, 11]: 3.5
- Residual ratio [3, 12]: 101%
- pH [3, 12]: 3.3
- Residual ratio [3, 13]: 100%
- pH [3, 13]: 3.4
- Residual ratio [3, 14]: 101%
- pH [3, 14]: 3.3
- Residual ratio [3, 15]: 100%
- pH [3, 15]: 3.4
- Peak area ratio to total peak area ([4]; human ghrelin 0.1 mg/mL in purified water adjusted to pH 1.8 with hydrochloric acid, 1 day after): 97.68%
- Peak area ratio to total peak area ([4]; human ghrelin 0.1 mg/mL in purified water adjusted to pH 1.8 with hydrochloric acid, 1 day after, listed as human ghrelin): less than 98%
- Peak area ratio to total peak area ([4]; human ghrelin 0.1 mg/mL in purified water adjusted to pH 1.8 with hydrochloric acid, 3 days after): 95.01%
- Peak area ratio to total peak area ([4]; human ghrelin 0.1 mg/mL in purified water adjusted to pH 1.8 with hydrochloric acid, before storage): 99.16%
- Peak area ratio to total peak area ([4]; human ghrelin 0.1 mg/mL in purified water adjusted to pH 3.9 with hydrochloric acid, 1 day after): 99.19%
- Peak area ratio to total peak area ([4]; human ghrelin 0.1 mg/mL in purified water adjusted to pH 3.9 with hydrochloric acid, 3 days after): 99.14%
- Peak area ratio to total peak area ([4]; human ghrelin 0.1 mg/mL in purified water adjusted to pH 3.9 with hydrochloric acid, before storage): 99.21%
- Peak area ratio to total peak area ([4]; human ghrelin 0.1 mg/mL in purified water adjusted to pH 7.8 with sodium hydroxide, 1 day after): 94.78%
- Peak area ratio to total peak area ([4]; human ghrelin 0.1 mg/mL in purified water adjusted to pH 7.8 with sodium hydroxide, 1 day after, listed as human ghrelin): less than 98%
- Peak area ratio to total peak area ([4]; human ghrelin 0.1 mg/mL in purified water adjusted to pH 7.8 with sodium hydroxide, 3 days after): 87.84%
- Peak area ratio to total peak area ([4]; human ghrelin 0.1 mg/mL in purified water adjusted to pH 7.8 with sodium hydroxide, before storage): 98.85%
- Peak area ratio to total peak area ([4]; human ghrelin 0.1 mg/mL in purified water, pH 4.7 (not adjusted), 1 day after): 99.12%
- Peak area ratio to total peak area ([4]; human ghrelin 0.1 mg/mL in purified water, pH 4.7 (not adjusted), 3 days after): 98.94%
- Peak area ratio to total peak area ([4]; human ghrelin 0.1 mg/mL in purified water, pH 4.7 (not adjusted), before storage): 99.20%
- pH of the solution ([4]; human ghrelin dissolved in purified water, about 0.03 μmol/mL (0.1 mg/mL)): 4.7
- pH value of the solution [5]: 3.5
